For 28 compounds, IC50 and GI50 results are on record in patent publication USRE46511E1, “Fused pyrimidine derivatives for inhibition of tyrosine kinase activity” (HANMI SCIENCE CO., LTD., priority 2010, dated 2017).

Where two headings read alike, the source gives them in different places.

Assay [1] deals with T1, BTK (Homo sapiens, UniProt Q06187).
T1 construct: purchased Invitrogen
The assay is described as follows: z-lyte kinase assay, BTK. The format is biochemical. The procedure: (§1) The inhibiting activities of the inventive compounds obtained in Examples 1 to 237 against EGFR WT and EGFR L858R/T790M kinase were determined using z-lyte kinase assay kit (Invitrogen, PV3191). The kinases used in the test were purchased from Invitrogen.
(§2) The compounds obtained in Examples 1 to 237 were each prepared to 10 mM DMSO solution, and a solution containing 4% DMSO were prepared therefrom and diluted to a concentration of 1 μM to 0.0001 μM. […] The test was conducted in a 384 well polystyrene flat-bottomed plates. 5 μl of the diluted solution of each compound was added to each well, and 10 μl of a mixture of peptide substrate and kinase in a suitable concentration and 5 μl of 5˜300 μM ATP solution were successively added thereto and the plate was incubated in a stirrer at room temperature for 60 minutes. After 60 mins, 10 μl of coloring reagent was added to the resulting mixture to initiate a fluorescence reaction of peptide substrate and a terminating solution was added thereto for terminating the reaction. A fluorescence value of each well was determined with a fluorescence meter (Molecular Device) at 400 nm (excitation filter) and 520 nm (emission filter). […] The calculation of IC50 and the result analysis were carried out by using Microsoft Excel.
(§3) The inhibiting activities of the inventive compounds obtained in Examples 1 to 237 against BTK and JAK3 kinases were determined, respectively. The procedure of Test Example 2 was repeated except that BTK and JAK3 kinases (Invitrogen) were employed instead of using the EGFR kinase.

Assay [2] deals with T2, JAK3 (Homo sapiens, UniProt P52333).
T2 construct: purchased Invitrogen
T2 sequence (P52333 1-1124): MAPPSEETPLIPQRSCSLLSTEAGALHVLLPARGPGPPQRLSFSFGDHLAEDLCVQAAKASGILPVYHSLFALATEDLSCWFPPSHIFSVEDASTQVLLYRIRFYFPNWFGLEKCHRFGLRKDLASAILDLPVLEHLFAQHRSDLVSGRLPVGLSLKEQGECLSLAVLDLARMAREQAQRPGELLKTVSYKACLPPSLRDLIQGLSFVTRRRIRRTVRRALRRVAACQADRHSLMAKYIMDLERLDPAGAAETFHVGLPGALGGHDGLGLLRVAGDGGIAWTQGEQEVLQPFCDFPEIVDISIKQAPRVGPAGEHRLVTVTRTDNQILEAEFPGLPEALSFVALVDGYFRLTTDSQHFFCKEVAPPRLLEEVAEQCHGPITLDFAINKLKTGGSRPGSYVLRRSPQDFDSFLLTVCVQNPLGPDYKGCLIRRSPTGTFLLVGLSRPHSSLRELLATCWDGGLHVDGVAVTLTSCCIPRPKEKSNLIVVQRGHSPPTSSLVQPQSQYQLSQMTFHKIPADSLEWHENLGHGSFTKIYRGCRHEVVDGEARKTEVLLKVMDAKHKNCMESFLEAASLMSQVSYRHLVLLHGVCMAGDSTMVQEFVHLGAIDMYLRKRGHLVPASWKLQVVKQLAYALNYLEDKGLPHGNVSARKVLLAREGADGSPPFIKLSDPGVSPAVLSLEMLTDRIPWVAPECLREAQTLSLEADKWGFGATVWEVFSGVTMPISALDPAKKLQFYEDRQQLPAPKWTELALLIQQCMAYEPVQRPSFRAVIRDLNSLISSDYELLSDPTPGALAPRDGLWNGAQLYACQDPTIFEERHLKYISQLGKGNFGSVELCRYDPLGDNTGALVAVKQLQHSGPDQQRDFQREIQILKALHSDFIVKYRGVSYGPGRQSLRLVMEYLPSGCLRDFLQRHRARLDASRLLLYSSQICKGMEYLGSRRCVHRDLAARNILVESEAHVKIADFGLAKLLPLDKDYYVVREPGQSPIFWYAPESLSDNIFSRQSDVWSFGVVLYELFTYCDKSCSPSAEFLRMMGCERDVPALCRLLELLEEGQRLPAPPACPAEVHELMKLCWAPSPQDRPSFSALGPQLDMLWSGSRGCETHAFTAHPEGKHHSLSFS
Description: z-lyte kinase assay, JAK3. The format is biochemical. How it is done:
as §1, §2, §3

The subject of assay [3] is HCC827 (EGFR DelE746_A750). Description: Inhibition test for growth of cancer cell expressing EGFR (SRB), HCC827.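 Note: cells in 96-well plates exposed to tenfold serial dilutions from 100 µM, fixed with trichloroacetic acid, SRB-stained, absorbance read at 540 nm, DMSO under 1%.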 The format is cell-based. To be noted: Homo sapiens, HCC827, 72 h, read-out: GI50 HCC827 EGFR DelE746_A750.
The subject of assay [4] is NCI-H1975 (EGFR L858R/T790M). The assay is described as follows: Inhibition test for growth of cancer cell expressing EGFR (MTS), NCI-H1975. The format is cell-based. The note with it: Homo sapiens, read-out: GI50 NCI-H1975 EGFR L858R/T790M.
In assay [5] the test system is A431 (EGFR WT). Description: Inhibition test for growth of cancer cell expressing EGFR (SRB), A431.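 Note: cells in 96-well plates exposed to tenfold serial dilutions from 100 µM down to 10^−6 µM, DMSO under 1%, SRB staining read as absorbance at 540 nm.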 The format is cell-based. To be noted: Homo sapiens, read-out: GI50 A431 EGFR WT.
[6] abbreviates: A-431, A431 cells, 72 hours, SRB.

T1 sequence (Q06187 whole entry): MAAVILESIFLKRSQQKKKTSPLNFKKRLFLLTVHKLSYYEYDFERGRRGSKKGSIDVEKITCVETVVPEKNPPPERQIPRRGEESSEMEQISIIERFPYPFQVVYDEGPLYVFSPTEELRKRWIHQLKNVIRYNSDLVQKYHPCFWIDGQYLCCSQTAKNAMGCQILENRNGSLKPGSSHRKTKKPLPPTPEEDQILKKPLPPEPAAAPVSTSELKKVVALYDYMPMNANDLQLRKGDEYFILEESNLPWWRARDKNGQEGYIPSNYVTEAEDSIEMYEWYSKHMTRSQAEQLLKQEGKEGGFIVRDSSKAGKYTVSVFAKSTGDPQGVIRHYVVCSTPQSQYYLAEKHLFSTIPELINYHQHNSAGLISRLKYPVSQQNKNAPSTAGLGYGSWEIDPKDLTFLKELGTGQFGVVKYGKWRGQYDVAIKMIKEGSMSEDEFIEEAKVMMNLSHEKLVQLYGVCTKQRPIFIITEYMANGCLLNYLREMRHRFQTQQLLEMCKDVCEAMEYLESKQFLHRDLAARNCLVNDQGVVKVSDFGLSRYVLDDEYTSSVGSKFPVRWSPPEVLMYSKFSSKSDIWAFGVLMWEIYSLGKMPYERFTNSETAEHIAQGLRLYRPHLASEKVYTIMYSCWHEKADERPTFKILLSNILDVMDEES

For the compound `C=CC(=O)Nc1cccc(Oc2nc(Nc3ccc(N4CCN(C(=O)CN(C)C)CC4)cc3)nc3ccsc23)c1` [Example 21], the values for the IC50 in assay [1] and in assay [2] were ≤ 0.05 µM and 0.05 to 0.1 µM, respectively.
On the same counts, the results for `C=CC(=O)Nc1cccc(Oc2nc(Nc3ccc(N4CCC(C(=O)O)CC4)cc3)nc3ccsc23)c1` [Example 44] are 0.05 to 0.1 µM and 0.05 to 0.1 µM.
On the same counts, the results for `C=CC(=O)Nc1cccc(Oc2nc(Nc3ccc(P(=O)(OCC)OCC)cc3)nc3ccsc23)c1` [Example 67] are ≤ 0.05 µM and ≤ 0.05 µM.
On the same counts, the results for `C=CC(=O)Nc1cccc(Oc2nc(Nc3ccc([S+](C)[O-])cc3)nc3ccsc23)c1` (centres unmarked) [Example 68] are 0.05 to 0.1 µM and ≤ 0.05 µM.
With `C=CC(=O)Nc1cccc(Oc2nc(Nc3ccc(S(=O)(=O)N4CCN(CC)CC4)cc3)nc3ccsc23)c1` [Example 76], the GI50 in assay [3] (HCC827 cells, 72 hours, SRB) is < 0.05 µM; in assay [4] (NCI-H1975 cells, 48 hours, MTS), 0.05 to 0.1 µM; in assay [5] (setting [6]), > 1 µM.
On the same counts, the results for `C=CC(=O)Nc1cccc(Oc2nc(Nc3ccc(C(=O)NCCN4CCCC4)cc3)nc3ccsc23)c1` [Example 80] are < 0.05 µM, < 0.05 µM and > 1 µM.
On the same counts, the results for `C=CC(=O)Nc1cccc(Oc2nc(Nc3ccc(C(=O)N4CCN(CC)CC4)cc3)nc3ccsc23)c1` [Example 90] are < 0.05 µM, < 0.05 µM and > 1 µM.
On the same counts, the results for `C=CC(=O)Nc1cccc(Oc2nc(Nc3ccc(C[S+](C)[O-])cc3)nc3ccsc23)c1` (centres unmarked) [Example 94] are < 0.05 µM, < 0.05 µM and > 1 µM.
For the compound `C=CC(=O)Nc1cccc(Oc2nc(Nc3ccc(CCN4CCN(S(=O)(=O)C=C)CC4)cc3)nc3ccsc23)c1` [Example 100], the GI50 was < 0.05 µM in assay [3] (HCC827 cells, 72 hours, SRB); < 0.05 µM in assay [4] (NCI-H1975 cells, 48 hours, MTS); > 1 µM in assay [5] (setting [6]).
`C=CC(=O)Nc1cccc(Oc2nc(Nc3ccc4c(c3)NCCOC4)nc3ccsc23)c1` [Example 107]: the GI50 was < 0.05 µM in assay [3] (HCC827 cells, 72 hours, SRB); < 0.05 µM in assay [4] (NCI-H1975 cells, 48 hours, MTS); > 1 µM in assay [5] (setting [6]).
Turning to `C=CC(=O)Nc1cccc(Oc2nc(Nc3ccc4c(c3)CCN4C(=O)CN(C)C)nc3ccsc23)c1` [Example 109], the GI50 in assay [3] (HCC827 cells, 72 hours, SRB) was < 0.05 µM; in assay [4] (NCI-H1975 cells, 48 hours, MTS), < 0.05 µM; in assay [5] (setting [6]), > 1 µM.
`C=CC(=O)Nc1cccc(Oc2nc(Nc3ccc(N4CCN(CC)CC4)cc3OC)nc3ccsc23)c1` [Example 112]: the GI50 in assay [3] (HCC827 cells, 72 hours, SRB) is < 0.05 µM; in assay [4] (NCI-H1975 cells, 48 hours, MTS) it was < 0.05 µM; in assay [5] (setting [6]), > 1 µM.
Turning to `C=CC(=O)Nc1cccc(Oc2nc(Nc3ccc(N4CCN(S(C)(=O)=O)CC4)c(F)c3)nc3ccsc23)c1` [Example 120], the GI50 is < 0.05 µM in assay [3] (HCC827 cells, 72 hours, SRB); < 0.05 µM in assay [4] (NCI-H1975 cells, 48 hours, MTS); > 1 µM in assay [5] (setting [6]).
For `C=CC(=O)Nc1cccc(Oc2nc(Nc3ccc(C4CCCN(C)C4)c(F)c3)nc3ccsc23)c1` (centres unmarked) [Example 128], the GI50 in assay [3] (HCC827 cells, 72 hours, SRB) is < 0.05 µM; in assay [4] (NCI-H1975 cells, 48 hours, MTS), < 0.05 µM; in assay [5] (setting [6]) it was > 1 µM.
As to `C=CC(=O)Nc1cccc(Oc2nc(Nc3ccc(N4CCNCC4)cc3)nc3ccsc23)c1` [Example 158, N-(3-(2-(4-(piperazin-1-yl)phenylamino)-thieno[3,2-d]pyrimidine-4-yloxy)-phenyl)-acrylamide], the GI50 in assay [3] (HCC827 cells, 72 hours, SRB) was < 0.05 µM; in assay [4] (NCI-H1975 cells, 48 hours, MTS), 0.1 to 1 µM; in assay [5] (setting [6]), > 1 µM.
Regarding `C=CC(=O)Nc1cccc(Oc2nc(Nc3ccc(N4CCNCC4)c(Cl)c3)nc3ccsc23)c1` [Example 159], the GI50 in assay [3] (HCC827 cells, 72 hours, SRB) was < 0.05 µM; in assay [4] (NCI-H1975 cells, 48 hours, MTS), < 0.05 µM; in assay [5] (setting [6]), > 1 µM.
Take `C=CC(=O)Nc1ccc(F)c(Oc2nc(Nc3ccc(N4CCN(C)CC4)cc3)nc3ccsc23)c1` [Example 165]: the GI50 in assay [3] (HCC827 cells, 72 hours, SRB) was < 0.05 µM; in assay [4] (NCI-H1975 cells, 48 hours, MTS), < 0.05 µM; in assay [5] (setting [6]), > 1 µM.
As for `C=CC(=O)Nc1cccc(Oc2nc(Nc3ccc(N4CCN(C)CC4)cn3)nc3ccsc23)c1` [Example 167, N-(3-(2-(5-(4-methylpiperazin-1-yl)piridin-2-ylamino)thieno[3,2-d]pyrimidin-4-yloxy)phenyl)acrylamide], the GI50 was < 0.05 µM in assay [3] (HCC827 cells, 72 hours, SRB); < 0.05 µM in assay [4] (NCI-H1975 cells, 48 hours, MTS); > 1 µM in assay [5] (setting [6]).
For the compound `C=CC(=O)Nc1cccc(Oc2nc(Nc3ccc(N4CCN(CC)CC4)cn3)nc3ccsc23)c1` [Example 168], the GI50 in assay [3] (HCC827 cells, 72 hours, SRB) is < 0.05 µM; in assay [4] (NCI-H1975 cells, 48 hours, MTS), < 0.05 µM; in assay [5] (setting [6]), > 1 µM.
As to `C=CC(=O)Nc1cccc(Oc2nc(Nc3ccc(CN4CCCC4)cc3)nc3ccsc23)c1` [Example 176], the GI50 in assay [3] (HCC827 cells, 72 hours, SRB) is < 0.05 µM; in assay [4] (NCI-H1975 cells, 48 hours, MTS), < 0.05 µM; in assay [5] (setting [6]) it was > 1 µM.
`C=CC(=O)Nc1cccc(Oc2nc(Nc3ccc(CN4CCCCC4)cc3)nc3ccsc23)c1` [Example 178]: the GI50 in assay [3] (HCC827 cells, 72 hours, SRB) is < 0.05 µM; in assay [4] (NCI-H1975 cells, 48 hours, MTS), < 0.05 µM; in assay [5] (setting [6]), > 1 µM.
Consider `C=CC(=O)Nc1cccc(Oc2nc(Nc3ccc(C(C)N4CCN(CC)CC4)cc3)nc3ccsc23)c1` (centres unmarked) [Example 184], for which the GI50 in assay [3] (HCC827 cells, 72 hours, SRB) is < 0.05 µM; in assay [4] (NCI-H1975 cells, 48 hours, MTS), < 0.05 µM; in assay [5] (setting [6]), > 1 µM.
With `C=CC(=O)Nc1cccc(Oc2nc(Nc3ccc(CN4CCN(CC5CC5)CC4)cc3)nc3ccsc23)c1` [Example 185], the GI50 was < 0.05 µM in assay [3] (HCC827 cells, 72 hours, SRB); < 0.05 µM in assay [4] (NCI-H1975 cells, 48 hours, MTS); > 1 µM in assay [5] (setting [6]).
For the compound `C=CC(=O)Nc1cccc(Oc2nc(Nc3ccc(CN4CCN(C5CCN(C)CC5)CC4)cc3)nc3ccsc23)c1` [Example 186], the GI50 in assay [3] (HCC827 cells, 72 hours, SRB) was < 0.05 µM; in assay [4] (NCI-H1975 cells, 48 hours, MTS), < 0.05 µM; in assay [5] (setting [6]), > 1 µM.
As to `C=CC(=O)Nc1cccc(Oc2nc(Nc3ccc(CP(=O)(OC)OC)cc3)nc3ccsc23)c1` [Example 189], the GI50 in assay [3] is < 0.05 µM; in assay [4] (NCI-H1975, 48 h) it was < 0.05 µM; in assay [5] (A-431, 72 h), > 1 µM.
Take `C=CC(=O)Nc1ccc(F)c(Nc2nc(Nc3ccc(N4CCN(C)CC4)cc3)nc3ccsc23)c1` [Example 218, N-(4-fluoro-3-(2-(4-(4-methyl-piperazin-1-yl)-phenylamino)-thieno[3,2-d]pyrimidin-4-ylamino)-phenyl)-acrylamide]: the GI50 in assay [3] (HCC827 cells, 72 hours, SRB) was < 0.05 µM; in assay [4] (NCI-H1975 cells, 48 hours, MTS), 0.05 to 0.1 µM; in assay [5] (setting [6]), > 1 µM.
On the same counts, the results for `C=CC(=O)Nc1cccc(Oc2nc(Nc3ccc(N4CCN(C)CC4)c(OC)c3)nc3ccoc23)c1` [Example 234] are < 0.05 µM, < 0.05 µM and > 1 µM.
For the compound `CS(=O)(=O)CCNCc1ccc(-c2ccc3ncnc(Nc4ccc(OCc5cccc(F)c5)c(Cl)c4)c3c2)o1` [Lapatinib, lapatinib, reference compound], the GI50 in assay [3] is 0.1 to 1 µM; in assay [4] (NCI-H1975, 48 h), > 1 µM; in assay [5] (A-431, 72 h) it was 0.05 to 0.1 µM.
